Key:
Type in all cases: cell-based
A549 lung cancer cells = test: Cancer cell survival (CellTiter-Glo), A549; settings: Homo sapiens, 72 h, read-out: Cell survival at given concentration
Summary of the method: (§1)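 Following overnight plating of 4×10^3 cells per well, triplicate wells received compound at nine concentrations (10× dosing stocks: fatty acids 1 μM-10 mM, all others 100 nM-1 mM). Incubation lasted 72 h at 37 C under 5% CO2. CellTiter-Glo luminescence then gave percent survival and IC50.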

[1] = test system: PC-3 prostate cancer cells; test: Cancer cell survival (CellTiter-Glo), PC-3; settings: Homo sapiens, PC-3 cells, 72 h, read-out: Cell survival at given concentration
Summary of the method: as §1

A-431 skin cancer cells = test: Cancer cell survival (CellTiter-Glo), A-431; settings: Homo sapiens, A-431 cells, 72 h
Summary of the method: as §1

[2] = test system: Daudi lymphoma cancer cells; test: Cancer cell survival (CellTiter-Glo), Daudi; settings: Homo sapiens, 72 h
Summary of the method: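 Daudi cells (4×10^3/well) were exposed for 72 h at 37 °C to nine concentrations of compound, added as 10× solutions spanning 1 μM–10 mM (fatty acids) or 100 nM–1 mM (others). CellTiter-Glo luminescence gave % survival versus untreated, medium-blank corrected; IC50 derived.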

MCF7 breast cancer cells = test: Cancer cell survival (CellTiter-Glo), MCF7; settings: Homo sapiens, 72 h, read-out: Cell survival at given concentration
Summary of the method: as §1

T24 bladder cancer cells = test: Cancer cell survival (CellTiter-Glo), T24; settings: Homo sapiens
Summary of the method: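 Viability by CellTiter-Glo after 72 h compound treatment of T24 bladder cancer cells (4×10^3/well, plated the night before), nine concentration levels in triplicate. Percent survival normalised to untreated cells minus medium background, from which IC50 was determined.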

AGS stomach cancer cells = test: Cancer cell survival (CellTiter-Glo), AGS; settings: 72 h
Summary of the method: as §1

[3] = test system: HCT 116 colorectal cancer cells; test: Cancer cell survival (CellTiter-Glo), HCT 116; settings: Homo sapiens, HCT 116 cells, 72 h
Summary of the method: as §1

[4] = 101 nM, read-out: Cell survival at given concentration
[5] = 318 nM, read-out: Cell survival at given concentration
[6] = 1 μM, read-out: Cell survival at given concentration
[7] = 3 μM, read-out: Cell survival at given concentration
[8] = 10 μM, read-out: Cell survival at given concentration
[9] = 32 μM, read-out: Cell survival at given concentration
[10] = 100 μM, read-out: Cell survival at given concentration
[11] = 316 μM, read-out: Cell survival at given concentration
[12] = 1000 μM, read-out: Cell survival at given concentration

## O=c1cc(-c2ccc(O)cc2)oc2cc(O)cc(O)c12 [apigenin]
A549 lung cancer cells; 101 nM
  viability at 0.101 µM: 101%
A549 lung cancer cells; 318 nM
  viability at 0.318 µM: 102%
A549 lung cancer cells; 1 μM
  viability at 1 µM: 102%
A549 lung cancer cells; 3 μM
  viability at 3 µM: 98%
A549 lung cancer cells; 10 μM
  viability at 10 µM: 102%
A549 lung cancer cells; 32 μM
  viability at 32 µM: 100%
A549 lung cancer cells; 100 μM
  viability at 100 µM: 82%
A549 lung cancer cells; 316 μM
  viability at 316 µM: 67%
A549 lung cancer cells; 1000 μM
  viability at 1000 µM: 62%
[1]; 101 nM
  viability at 0.101 µM: 100%
[1]; 318 nM
  viability at 0.318 µM: 100%
[1]; 1 μM
  viability at 1 µM: 98%
[1]; 3 μM
  viability at 3 µM: 102%
[1]; 10 μM
  viability at 10 µM: 107%
[1]; 32 μM
  viability at 32 µM: 98%
[1]; 100 μM
  viability at 100 µM: 82%
[1]; 316 μM
  viability at 316 µM: 72%
[1]; 1000 μM
  viability at 1000 µM: 70%
A-431 skin cancer cells; [4]
  viability at 0.101 µM: 101%
A-431 skin cancer cells; [5]
  viability at 0.318 µM: 100%
A-431 skin cancer cells; [6]
  viability at 1 µM: 100%
A-431 skin cancer cells; [7]
  viability at 3 µM: 102%
A-431 skin cancer cells; [8]
  viability at 10 µM: 100%
A-431 skin cancer cells; [9]
  viability at 32 µM: 83%
A-431 skin cancer cells; [10]
  viability at 100 µM: 58%
A-431 skin cancer cells; [11]
  viability at 316 µM: 47%
A-431 skin cancer cells; [12]
  viability at 1000 µM: 45%
A-431 skin cancer cells; Table 9.1
  IC50: 178 µM
[2]; [4]
  viability at 0.101 µM: 97%
[2]; [5]
  viability at 0.318 µM: 96%
[2]; [6]
  viability at 1 µM: 101%
[2]; [7]
  viability at 3 µM: 101%
[2]; [8]
  viability at 10 µM: 103%
[2]; [9]
  viability at 32 µM: 86%
[2]; [10]
  viability at 100 µM: 60%
[2]; [11]
  viability at 316 µM: 47%
[2]; [12]
  viability at 1000 µM: 44%
[2]; Table 4.1
  IC50: 186 µM
MCF7 breast cancer cells; 101 nM
  viability at 0.101 µM: 98%
MCF7 breast cancer cells; 318 nM
  viability at 0.318 µM: 99%
MCF7 breast cancer cells; 1 μM
  viability at 1 µM: 98%
MCF7 breast cancer cells; 3 μM
  viability at 3 µM: 100%
MCF7 breast cancer cells; 10 μM
  viability at 10 µM: 102%
MCF7 breast cancer cells; 32 μM
  viability at 32 µM: 89%
MCF7 breast cancer cells; 100 μM
  viability at 100 µM: 82%
MCF7 breast cancer cells; 316 μM
  viability at 316 µM: 76%
MCF7 breast cancer cells; 1000 μM
  viability at 1000 µM: 73%
T24 bladder cancer cells; T-24, 101 nM, 72 h, read-out: Cell survival at given concentration
  viability at 0.101 µM: 98%
T24 bladder cancer cells; T-24, 318 nM, 72 h, read-out: Cell survival at given concentration
  viability at 0.318 µM: 100%
T24 bladder cancer cells; T-24, 1 μM, 72 h, read-out: Cell survival at given concentration
  viability at 1 µM: 102%
T24 bladder cancer cells; T-24, 3 μM, 72 h, read-out: Cell survival at given concentration
  viability at 3 µM: 105%
T24 bladder cancer cells; T-24, 10 μM, 72 h, read-out: Cell survival at given concentration
  viability at 10 µM: 98%
T24 bladder cancer cells; T-24, 32 μM, 72 h, read-out: Cell survival at given concentration
  viability at 32 µM: 79%
T24 bladder cancer cells; T-24, 100 μM, 72 h, read-out: Cell survival at given concentration
  viability at 100 µM: 60%
T24 bladder cancer cells; T-24, 316 μM, 72 h, read-out: Cell survival at given concentration
  viability at 316 µM: 42%
T24 bladder cancer cells; T-24, 1000 μM, 72 h, read-out: Cell survival at given concentration
  viability at 1000 µM: 32%
T24 bladder cancer cells; T-24, 72 h, Table 3.1, read-out: 1050
  IC50: 161 µM
AGS stomach cancer cells; [4]
  viability at 0.101 µM: 99%
AGS stomach cancer cells; [5]
  viability at 0.318 µM: 102%
AGS stomach cancer cells; 1 μM, Table 10.1, read-out: Cell survival at given concentration
  viability at 1 µM: 104%
AGS stomach cancer cells; 3 μM, Table 10.1, read-out: Cell survival at given concentration
  viability at 3 µM: 101%
AGS stomach cancer cells; 10 μM, Table 10.1, read-out: Cell survival at given concentration
  viability at 10 µM: 106%
AGS stomach cancer cells; 32 μM, Table 10.1, read-out: Cell survival at given concentration
  viability at 32 µM: 102%
AGS stomach cancer cells; 100 μM, Table 10.1, read-out: Cell survival at given concentration
  viability at 100 µM: 89%
AGS stomach cancer cells; [11]
  viability at 316 µM: 71%
AGS stomach cancer cells; [12]
  viability at 1000 µM: 64%
[3]; [4]
  viability at 0.101 µM: 99%
[3]; [5]
  viability at 0.318 µM: 100%
[3]; [6]
  viability at 1 µM: 100%
[3]; [7]
  viability at 3 µM: 99%
[3]; [8]
  viability at 10 µM: 98%
[3]; [9]
  viability at 32 µM: 60%
[3]; [10]
  viability at 100 µM: 32%
[3]; [11]
  viability at 316 µM: 19%
[3]; [12]
  viability at 1000 µM: 15%
[3]; Table 6.1
  IC50: 45.8 µM

Source: US20210085640A1, “ACYLATED CATECHIN POLYPHENOLS AND METHODS OF THEIR USE FOR THE TREATMENT OF CANCER” (Flagship Pioneering Innovations V, Inc., priority 2018, published 2021)
